Results as given in patent US20240417688A1, “METHODS AND SYSTEMS FOR ADIPOCYTES DIFFERENTIATION” (priority 2021, published 2024).

Test system: Mesenchymal Stem cells (MSCs)
Assay: Oil Red O staining and quantification of adipogenic differentiation of MSCs in 2D culture
Assay type: cell-based
Conditions: FIG. 3; plate reader
Procedure: Palmitoleic, erusic, elaidic, and oleic acids are diluted to 20 mM concentration in ethanol absolute. Each FFA is prepared separately, following which, all […] FFAs are mixed together at equal volumes to create the FFA stock mix.
The stock mix is then added to cell growth medium at a concentration of 100 uM per FFA (dilution of 1:50 from stock mix).
Food grade sunflower lecithin is suspended in PBS 1× at 50 mg/ml concentration, and the suspension is sonicated at medium speed for 1-2 min, to then reach a homogenized solution then filtered through a 0.22 μm filter. The lecithin emulsion is added to cell growth medium at a concentration of 1 mg/ml (dilution of 1:50 from stock solution).
The two mediums were refreshed every 3 days and Oil red O quantification was performed on day 8 of contact.
It is noted, that high cell density can cause a curling effect that produced a cell aggregate, reveling underlying cells. A. (negative control culture)—The cell aggregate falsely stained by ORO (A2); the aggregation reviles few cells on the surface of the well (A1). B. (4FFAs+Insulin treatment) Cells produce a sheet that detaches from the surface (B1), with underlying differentiating cells (B3). C. […]
Turning now to FIG. 3, where Oil Red O (ORO) quantification was carried out after extraction using 2-propanol. ORO was extracted and quantified by absorption reading in a plate reader at 492 nm. […]

## insulin
  Oil Red O (ORO) quantity, absorption at 492 nm after 2-propanol extraction, versus control: no statistical difference than control
